Source: ChEMBL document CHEMBL3351605, “Biased multicomponent reactions to develop novel bromodomain inhibitors” (J Med Chem, 2014)

target: T1, Bromodomain-containing protein 4 (Homo sapiens, UniProt O60885); test: Inhibition of BRD4 (unknown origin) by biotinylated-JQ1 based AlphaScreen BRD binding assay; details: not given

| IC50 | Structure (SMILES) |
| --- | --- |
| 7.86 µM | COc1ccc(Nc2c(-c3ccc(-c4c(C)noc4C)cc3)nn3ccncc23)cc1 |
| 0.637 µM | Cc1noc(C)c1-c1ccc(-c2nc3cnccn3c2NC(C)(C)C)cc1 |
| > 100 µM | Cc1ccc2nc(-c3ccc(-c4c(C)noc4C)cc3)c(NCc3ccccc3)n2c1 |
| 16.3 µM | CCOC(=O)C(C)N(Cc1ccc(-c2c(C)noc2C)cc1)C(=O)c1ccc(OC)cc1 (centres undefined) |
| 69.9 µM | COc1ccc(-c2cc(-c3ccc(-c4c(C)noc4C)cc3)nc(-c3ccccc3)n2)cc1 |
| 1.7 µM | Cc1noc(C)c1-c1ccc(C=O)cc1 |

tested on: not listed separately; test: Cytotoxicity against BRD4-NUT-expressing human NMC-797 cells assessed as reduction in cell viability after 3 days by ATPlite assay; format: functional, cell-based; details: NMC-797, 72 h

| Structure (SMILES) | EC50 |
| --- | --- |
| Cc1noc(C)c1-c1ccc(-c2nc3cnccn3c2NC(C)(C)C)nc1 | 8.29 µM |
| CCCCN1C(=O)c2ccccc2NC(=O)C1c1ccc(-c2c(C)noc2C)c(OC)c1 (centres undefined) | 9.91 µM |
| Cc1noc(C)c1-c1ccc(-c2nc3cnccn3c2NC(C)(C)C)cc1 | 0.724 µM |
| Cc1noc(C)c1-c1cccc(C2Nc3ccccc3NC3=C2C(=O)OC3)c1 (centres undefined) | > 100 µM |
| Cc1noc(C)c1-c1ccc(-c2nc3ccccn3c2NC(C)(C)C)cc1 | 2.04 µM |
| Cc1noc(C)c1-c1ccc(-c2nc3cnccn3c2NCc2ccccc2)cc1 | 49.1 µM |
| Cc1noc(C)c1-c1ccc(-c2nc3ccccn3c2NC2CCCCC2)cc1 | 5.07 µM |
| Cc1noc(C)c1-c1ccc(-c2nc3ccc(Cl)cn3c2NC(C)(C)C)cc1 | 2.19 µM |
| COc1ccc(-c2cc(-c3ccc(-c4c(C)noc4C)cc3)nc(-c3ccccc3)n2)cc1 | > 100 µM |
| COc1ccc(Nc2c(-c3ccc(-c4c(C)noc4C)cc3)nc3ccccn23)cc1 | 7.36 µM |
| Cc1noc(C)c1-c1ccc(-c2nc3cnccn3c2NC(C)C)cc1 | 0.494 µM |
| COc1ccc(Nc2c(-c3ccc(-c4c(C)noc4C)cc3)nc3ccc(Cl)cn23)cc1 | 20.7 µM |
| Cc1noc(C)c1-c1ccc(-c2nc3ccc(Cl)cn3c2NCc2ccccc2)cc1 | 18.4 µM |
| Cc1noc(C)c1-c1ccc(-c2nc3cnccn3c2NC(C)(C)C)cc1F | 12.8 µM |
| Cc1noc(C)c1-c1ccc(-c2nc3cnccn3c2NC(C)(C)C)cn1 | > 100 µM |
| COc1ccc(Nc2c(-c3ccc(-c4c(C)noc4C)cc3)nc3cc(OC)ncn23)cc1 | 11.8 µM |
| CCOC(=O)[C@]1(C)NC(c2ccc(-c3c(C)noc3C)cc2)C2C(=O)N(CC)C(=O)C21 (some centres undefined) | 9.42 µM |

target: T1, Bromodomain-containing protein 4; test: Binding affinity to BRD4 (unknown origin) by isothermal titration […]; details: not given

| Kd | Structure (SMILES) |
| --- | --- |
| 0.55 µM | Cc1noc(C)c1-c1ccc(-c2nc3cnccn3c2NC(C)(C)C)cc1 |
